Results published in patent US20250115594A1, “ANTIBACTERIAL AGENTS: SOLUBLE SALTS AND AQUEOUS FORMULATIONS OF PYRONINS” (priority 2018, published 2025).
In brackets after ≈: the same amount, converted by molar mass.

Assays:
[1] = system: Escherichia coli D21f2tolC; experiment: Inhibition of bacterial growth, spiral gradient endpoint assay, E. coli; type: cell-based; conditions: read-out: in vitro antibacterial activity E. coli D21f2tolC MIC
From the text: (§1) Minimum inhibitory concentrations (MICs) for Staphylococcus aureus ATCC 12600 and Escherichia coli D21f2tolC were quantified using spiral gradient endpoint assays, essentially as described [Wallace, A. and Corkill, J. (1989) Application of the spiral plating method to study antimicrobial action. J. Microbiol. Meths. 10, 303-310; Paton, J., Holt, A., and Bywater, M. (1990) Measurement of MICs of antibacterial agents by spiral gradient endpoint compared with conventional dilution methods. Int. J. Exp. Clin. Chemother. 3, 31-38; Schalkowsky S. (1994) Measures of susceptibility from a spiral gradient of drug concentrations. Adv. Exp. Med. Biol. 349, 107-120]. Assays employed exponential-gradient plates containing 150 mm×4 mm Mueller-Hinton II cation-adjusted agar and 0.4-100 μg/ml of test salt. Plates were prepared using an Autoplate 4000 spiral plater (Spiral Biotech, Inc.). Saturated overnight cultures were swabbed radially onto plates, and plates were incubated for 16 h at 37° C. For each culture, the streak length was measured using a clear plastic template (Spiral Biotech, Inc.), the test-salt concentration at the streak endpoint was calculated using the program SGE (Spiral Biotech, Inc.), and the MIC was defined as the calculated test-salt concentration at the streak endpoint.

[2] = system: Staphylococcus aureus ATCC 12600; experiment: Inhibition of bacterial growth, spiral gradient endpoint assay, S. aureus; type: cell-based; conditions: ATCC12600, read-out: in vitro antibacterial activity S. aureus ATCC12600 MIC
From the text: as §1

[3] = target: M. tuberculosis RNA polymerase (Mycobacterium tuberculosis (strain ATCC 25618 / H37Rv), UniProt P9WGY7+P9WGY9); experiment: Fluorescence-detected assay of inhibition of Mycobacterium tuberculosis RNA polymerase; type: biochemical; conditions: read-out: RNAP-inhibitory activity M. tuberculosis RNAP IC50
Protocol: (§2) Fluorescence-detected RNA polymerase assays with E. coli RNA polymerase were performed by a modification of the procedure of Kuhlman et al., 2004 [Kuhlman, P., Duff, H. & Galant, A. (2004) A fluorescence-based assay for multisubunit DNA-dependent RNA polymerases. Anal. Biochem. 324, 183-190]. Reaction mixtures contained (20 μl): 0-100 nM test salt, 75 nM E. coli RNA polymerase σ^70 holoenzyme, 20 nM 384 bp DNA fragment containing the bacteriophage T4 N25 promoter, 100 μM ATP, 100 μM GTP, 100 μM UTP, 100 μM CTP, 50 mM Tris-HCl, pH 8.0, 100 mM KCl, 10 mM MgCl2, 1 mM DTT, 10 μg/ml bovine serum albumin, and 5.5% glycerol. Reaction components other than DNA and NTPs were pre-incubated for 10 min at 37° C. Reactions were carried out by addition of DNA and incubation for 5 min at 37° C., followed by addition of NTPs and incubation for 60 min at 37° C. DNA was removed by addition of 1 μl 5 mM CaCl2 and 2 U DNaseI (Ambion, Inc.), followed by incubation for 90 min at 37° C. RNA was quantified by addition of 100 μl RiboGreen RNA Quantitation Reagent (Invitrogen, Inc.; 1:500 dilution in Tris-HCl, pH 8.0, 1 mM EDTA), followed by incubation for 10 min at 25° C., followed by measurement of fluorescence intensity [excitation wavelength=485 nm and emission wavelength=535 nm; QuantaMaster QM1 spectrofluorometer (PTI, Inc.)]. IC50 is defined as the concentration of inhibitor resulting in 50% inhibition of RNA polymerase activity.
(§3) Fluorescence-detected RNA polymerase assays with M. tuberculosis RNA polymerase were performed as in Example 17.1, using reaction mixtures containing (20 μl): 0-100 nM test salt, 75 nM M. tuberculosis RNA polymerase core enzyme, 300 nM M. tuberculosis σ^A, 20 nM 384 bp DNA fragment containing the bacteriophage T4 N25 promoter, 100 μM ATP, 100 μM GTP, 100 μM UTP, 100 μM CTP, 40 mM Tris-HCl, pH 8.0, 80 mM NaCl, 5 mM MgCl2, 2.5 mM DTT, and 12.7% glycerol. IC50 is defined as the concentration of inhibitor resulting in 50% inhibition of RNA polymerase activity.

[4] = system: Mycobacterium tuberculosis H37Rv; experiment: Inhibition of bacterial growth, microplate Alamar Blue assay, M. tuberculosis; type: cell-based; conditions: read-out: in vitro antibacterial activity M. tuberculosis H37Rv MIC
physchem [5] = type: physicochemical; conditions: for solubility at 2 h: 37 °C, pH 7.4, aqueous buffer, kinetic from dmso stock
Protocol: Serial dilutions of test articles were prepared in dimethyl sulfoxide at 100× the final concentration. Test article solutions and blanks were diluted 100× into phosphate-buffered saline (PBS; 0.01 M sodium phosphate, pH 7.4, 137 mM NaCl, and 3 mM KCl) in a 96-well plate and mixed. After 2 h at 37° C., the presence of precipitate was detected by turbidity (absorbance at 540 nm). An absorbance value of greater than “mean+3xSD of the blank” (after subtracting background) was considered an indication of turbidity. The solubility limit was reported as the highest tested concentration with no evidence of turbidity.

S. aureus RNA polymerase = S. aureus RNA polymerase (Staphylococcus aureus (strain NCTC 8325 / PS 47), UniProt P47768+Q2G0N5); experiment: Fluorescence-detected assay of inhibition of Staphylococcus aureus RNA polymerase; type: biochemical; conditions: read-out: RNAP-inhibitory activity S. aureus RNAP IC50
Protocol: as §2
as §3, with “S. aureus” for “M. tuberculosis”

[6] = target: E. coli RNA polymerase σ70 holoenzyme (Escherichia coli (strain K12), UniProt P0A8T7+P0A8V2); experiment: Fluorescence-detected assay of inhibition of Escherichia coli RNA polymerase; type: biochemical; conditions: read-out: RNAP-inhibitory activity E. coli RNAP IC50
Protocol: as §2

physchem [7] = type: physicochemical; conditions: for solubility: thermodynamic from solid
Protocol: Starting with 0.5-5 mg test compound in a glass vial at room temperature, successive cycles of addition of vehicle, vortexing 15 s, and inspection were performed until all test compound dissolved. Vehicles were: 0.01 M sodium phosphate (pH 7.4); 5% dextrose in 0.01 M sodium phosphate (pH 7.4); and 0.5% carboxymethylcellulose (CMC)/0.5% Tween-80 (pH 8.4).

[8] = pH 8.4, aqueous with cosolvent or surfactant or cyclodextrin

Compound	MIC [1] [µg/mL]	MIC [2] [µg/mL]	IC50 [3] [nM]	MIC [4] [µg/mL]	solubility at 2 h (physchem [5]) [µg/mL]	IC50 (S. aureus RNA polymerase) [nM]	IC50 [6] [nM]	solubility (physchem [7]; pH 7.4, aqueous buffer) [µg/mL]	solubility (physchem [7]; pH 7.4, saline or isotonic) [µg/mL]	solubility (physchem [7]; [8]) [µg/mL]	times more soluble than the corresponding free acid (Example 8) (physchem [5]) [times]	concentration at which it can be formulated (physchem [7]) [µg/mL]
[2H]C([2H])([2H])OC(=O)N/C=C/CCCc1cc(O)c(C(=O)/C(C)=C/c2cnc(Oc3ccc(F)cc3)s2)c(=O)o1 [Example 8]	0.06 (≈ 0.116 µM)	0.3 (≈ 0.58 µM)	20	0.8 (≈ 1.55 µM)	100 (≈ 193 µM)	60	4	< 100	< 100	< 100	–	–
[2H]C([2H])([2H])OC(=O)N/C=C/CCCc1cc([O-])c(C(=O)/C(C)=C/c2cnc(Oc3ccc(F)cc3)s2)c(=O)o1.[Na+] [Example 9]	0.04	0.4	30	0.4	≥ 5000	30	–	10000	5000	20000	≥ 50	≥ 10000
[2H]C([2H])([2H])OC(=O)N/C=C/CCCc1cc([O-])c(C(=O)/C(C)=C/c2cnc(Oc3ccc(F)cc3)s2)c(=O)o1.[K+] [Example 10]	0.03	0.2	–	–	–	–	6	–	–	–	–	–
[2H]C([2H])([2H])OC(=O)N/C=C/CCCc1cc(O)c(C(=O)/C(C)=C/c2cnc(Oc3ccc(F)c(Cl)c3)s2)c(=O)o1 [Example 11]	0.02 (≈ 0.0362 µM)	0.2 (≈ 0.362 µM)	30	0.8 (≈ 1.45 µM)	–	1	3	–	–	–	–	–
[2H]C([2H])([2H])OC(=O)N/C=C/CCCc1cc([O-])c(C(=O)/C(C)=C/c2cnc(Oc3ccc(F)c(Cl)c3)s2)c(=O)o1.[Na+] [Example 12]	0.03	0.2	30	0.8	–	3	–	–	–	–	–	–
[2H]C([2H])([2H])OC(=O)N/C=C/CCCc1cc(O)c(C(=O)/C(C)=C/c2cnc(Oc3ccc(-c4ccccc4)cc3)s2)c(=O)o1 [Example 13]	0.03 (≈ 0.0521 µM)	> 8	> 6000	> 50	–	10	20	–	–	–	–	–
[2H]C([2H])([2H])OC(=O)N/C=C/CCCc1cc([O-])c(C(=O)/C(C)=C/c2cnc(Oc3ccc(-c4ccccc4)cc3)s2)c(=O)o1.[Na+] [Example 14]	0.03	> 8	> 6000	> 50	–	30	50	–	–	–	–	–
